# Reference: PubChem BioAssay (NCI)
#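 Following 48 hours of exposure in 96-well plates, responses at five concentrations were used to interpolate endpoints linearly. GI50 marks 50% less growth. TGI is the concentration that stops growth completely.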
# How the values were obtained:
# Assay in all cases: NCI-60 cell line screen, 48 h
# [1] = test system: NCI/ADR-RES ovarian
# [2] = test system: SK-MEL-2 melanoma
# [3] = test system: OVCAR-4 ovarian
# [4] = test system: HL-60(TB) leukemia
# [5] = test system: OVCAR-8 ovarian
# [6] = test system: KM12 colon
# [7] = test system: BT-549 breast
# [8] = test system: HOP-62 NSCLC
# [9] = test system: UACC-62 melanoma
# [10] = test system: SN12C renal
# [11] = test system: M14 melanoma
# [12] = test system: NCI-H23 lung
# [13] = test system: SF-539 CNS
# [14] = test system: OVCAR-5 ovarian
# [15] = test system: MDA-MB-231 breast
# [16] = test system: 786-0 renal
# [17] = test system: COLO 205 colon
# [18] = test system: TK-10 renal
# [19] = test system: UACC-257 melanoma
# [20] = test system: MALME-3M melanoma
# [21] = test system: HT29 colon
# [22] = test system: HCT-116 colon
# [23] = test system: K-562 leukemia
# [24] = test system: CCRF-CEM leukemia
# [25] = test system: CAKI-1 renal
# [26] = test system: SF-295 CNS
# [27] = test system: DU-145 prostate
# [28] = test system: NCI-H460 lung
# [29] = test system: SNB-75 CNS
# [30] = test system: NCI-H226 lung
# [31] = test system: A498 renal
# [32] = test system: HS 578T breast
# [33] = test system: UO-31 renal
# [34] = test system: SK-MEL-5 melanoma
# [35] = test system: MOLT-4 leukemia
# [36] = test system: SK-OV-3 ovarian
# [37] = test system: RPMI-8226 leukemia
# [38] = test system: A549 NSCLC
# [39] = test system: SF-268 CNS
# [40] = test system: EKVX NSCLC
# [41] = test system: PC-3 prostate
# [42] = test system: SW-620 colon
# [43] = test system: SK-MEL-28 melanoma
# [44] = test system: T-47D breast
# [45] = test system: OVCAR-3 ovarian
# [46] = test system: NCI-H522 lung
# [47] = test system: HOP-92 NSCLC
# [48] = test system: SNB-19 CNS
# [49] = test system: MDA-MB-435
# [50] = test system: MCF7 breast
# [51] = test system: HCC-2998 colon
structure (smiles),measurement,setting,value
Cc1nc(NC(=S)Nc2ccc(F)cc2)sc1C(=O)NNC(=S)Nc1ccc(F)cc1,GI50,[1],3.62 µM
same,TGI,[1],18.2 µM
same,GI50,[2],19.4 µM
same,TGI,[2],60.3 µM
same,GI50,[3],5.55 µM
same,TGI,[3],60 µM
same,GI50,[4],3.68 µM
same,TGI,[4],27.8 µM
same,GI50,[5],16 µM
same,TGI,[5],> 100 µM
same,GI50,[6],3.11 µM
same,TGI,[6],13.4 µM
same,GI50,[7],14.9 µM
same,TGI,[7],45.2 µM
same,GI50,[8],26.5 µM
same,TGI,[8],82.5 µM
same,GI50,[9],3.01 µM
same,TGI,[9],18.9 µM
same,GI50,[10],10.2 µM
same,TGI,[10],32.1 µM
same,GI50,[11],20.2 µM
same,TGI,[11],> 100 µM
same,GI50,[12],2.78 µM
same,TGI,[12],9.73 µM
same,GI50,[13],13 µM
same,TGI,[13],26.2 µM
same,GI50,[14],16.2 µM
same,TGI,[14],62.1 µM
same,GI50,[15],10.4 µM
same,TGI,[15],25.1 µM
same,GI50,[16],21.9 µM
same,TGI,[16],89.1 µM
same,GI50,[17],7.11 µM
same,TGI,[17],20 µM
same,GI50,[18],6.93 µM
same,TGI,[18],48.1 µM
same,GI50,[19],10.1 µM
same,TGI,[19],36.8 µM
same,GI50,[20],13.1 µM
same,TGI,[20],35.5 µM
same,GI50,[21],8.58 µM
same,TGI,[21],25.3 µM
same,GI50,[22],7.93 µM
same,TGI,[22],> 100 µM
same,GI50,[23],3.91 µM
same,TGI,[23],> 100 µM
same,GI50,[24],2.56 µM
same,TGI,[24],15.7 µM
same,GI50,[25],11.4 µM
same,TGI,[25],44.9 µM
same,GI50,[26],3.96 µM
same,TGI,[26],21.1 µM
same,GI50,[27],5.53 µM
same,TGI,[27],22.3 µM
same,GI50,[28],3.85 µM
same,TGI,[28],16.2 µM
same,GI50,[29],15.3 µM
same,TGI,[29],54.7 µM
same,GI50,[30],14.1 µM
same,TGI,[30],57.8 µM
same,GI50,[31],2.4 µM
same,TGI,[31],15.4 µM
same,GI50,[32],11.4 µM
same,TGI,[32],38 µM
same,GI50,[33],5.28 µM
same,TGI,[33],21 µM
same,GI50,[34],3.5 µM
same,TGI,[34],15.2 µM
same,GI50,[35],3.33 µM
same,TGI,[35],> 100 µM
same,GI50,[36],15.7 µM
same,TGI,[36],61.6 µM
same,GI50,[37],2.2 µM
same,TGI,[37],6.9 µM
same,GI50,[38],5.29 µM
same,TGI,[38],45.5 µM
same,GI50,[39],10.7 µM
same,TGI,[39],28.5 µM
same,GI50,[40],4.61 µM
same,TGI,[40],> 100 µM
same,GI50,[41],4.38 µM
same,TGI,[41],80.7 µM
same,GI50,[42],10.6 µM
same,TGI,[42],25.2 µM
same,GI50,[43],8.65 µM
same,TGI,[43],28.3 µM
same,GI50,[44],2.59 µM
same,TGI,[44],20.7 µM
same,GI50,[45],2.55 µM
same,TGI,[45],10.1 µM
same,GI50,[46],21.1 µM
same,TGI,[46],> 100 µM
same,GI50,[47],1.49 µM
same,TGI,[47],7.25 µM
same,GI50,[48],8.39 µM
same,TGI,[48],66.5 µM
same,GI50,[49],7.34 µM
same,TGI,[49],55.2 µM
same,GI50,[50],3.72 µM
same,TGI,[50],32.7 µM
same,GI50,[51],6.6 µM
same,TGI,[51],22.5 µM
